Experimental data taken from ChEMBL document CHEMBL1201862, “PubChem BioAssay data set” (2004).
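Test compounds were applied to cells in 96-well plates for 48 hours at 5 doses. GI50: concentration for 50% inhibition of growth.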 Active and inactive are the calls of the source. No stated cut-off is given here; in the data, active = GI50 up to about 1.1 µM and inactive = higher.

Key:
Assay in all cases: NCI anticancer screen, dose series, 48 h
HOP-18 = test system: HOP-18
LXFL 529 = test system: LXFL 529
DLD-1 = test system: DLD-1
DMS-114 = test system: DMS-114
M19-MEL = test system: M19-MEL
DMS-273 = test system: DMS-273
SNB-78 = test system: SNB-78
RXF 631 = test system: RXF 631
XF498 = test system: XF498

SMILES | GI50 (HOP-18) | GI50 (LXFL 529) | GI50 (DLD-1) | GI50 (DMS-114) | GI50 (M19-MEL) | GI50 (DMS-273) | GI50 (SNB-78) | GI50 (RXF 631) | GI50 (XF498)
O=c1ccc2ccccc2c2ccccc12 | 3.52 µM (inactive) | 2.95 µM (inactive) | 3.39 µM (inactive) | 2.41 µM (inactive) | 3.15 µM (inactive) | 3.33 µM (inactive) | 4.07 µM (inactive) |  | 
Nc1nc(N)c(-c2ccccc2)c(C(=O)Nc2ccc(Cl)c(Cl)c2)n1 | > 100 µM (inactive) | > 100 µM (inactive) | > 100 µM (inactive) | > 100 µM (inactive) | > 100 µM (inactive) | > 100 µM (inactive) | > 100 µM (inactive) | > 100 µM (inactive) | 
Cc1cccc(/C=N/C23CC4CC(CC(C4)C2)C3)c1 | > 100 µM (inactive) |  | > 100 µM (inactive) | > 100 µM (inactive) | > 100 µM (inactive) | > 100 µM (inactive) | > 100 µM (inactive) |  | > 100 µM (inactive)
COc1ccc(C2CC(C)=Nc3c(O)nc(S)nc3N2)cc1 (stereo unspecified) | 62.7 µM (inactive) | 16.6 µM (inactive) |  | 21 µM (inactive) | 16.9 µM (inactive) | 16.7 µM (inactive) | 46.7 µM (inactive) | 25.6 µM (inactive) | 24.8 µM (inactive)
O=C1C(c2ccccc2)=C(c2ccccc2)C(c2ccc(-c3ccc(C4=C(c5ccccc5)C(=O)C(c5ccccc5)=C4c4ccccc4)cc3)cc2)=C1c1ccccc1 | > 100 µM (inactive) | > 100 µM (inactive) | > 100 µM (inactive) | > 100 µM (inactive) | > 100 µM (inactive) | > 100 µM (inactive) |  | > 100 µM (inactive) | > 100 µM (inactive)
COC(=O)N/N=C(/c1nc2ccc([N+](=O)[O-])cc2nc1O)C(O)c1ccc(OC)c(OC)c1 (stereo unspecified) | > 100 µM (inactive) | 87.1 µM (inactive) | > 100 µM (inactive) | 24.7 µM (inactive) | > 100 µM (inactive) | 25 µM (inactive) | 28.4 µM (inactive) | 44.5 µM (inactive) | 59.2 µM (inactive)
Cc1ccc2c(c1)CN1c3ccc(C)cc3CN2C1c1ccccc1O |  | 48.8 µM (inactive) | 26.5 µM (inactive) | 16.8 µM (inactive) | 41.1 µM (inactive) | 13.5 µM (inactive) | 67.1 µM (inactive) |  | 
O=C1CC2CC=C[C@H]3c4cc5c(cc4C(=O)N1C23)OCO5 (stereo partly specified) |  | > 50 µM (inactive) | > 50 µM (inactive) | > 50 µM (inactive) | > 50 µM (inactive) | > 50 µM (inactive) | > 50 µM (inactive) |  | 
CN1CCOC(c2ccccc2)O1 (stereo unspecified) | > 100 µM (inactive) | > 100 µM (inactive) | > 100 µM (inactive) | > 100 µM (inactive) | > 100 µM (inactive) | > 100 µM (inactive) | > 100 µM (inactive) | > 100 µM (inactive) | 
CC1OC(CC(=O)O)Cc2c(O)c3c(c(O)c21)C(=O)C=C(C1=CC(=O)c2c(O)c4c(c(O)c2C1=O)CC(CC(=O)O)OC4C)C3=O (stereo unspecified) | 22 µM (inactive) | 8.81 µM (inactive) | 12.7 µM (inactive) | 15 µM (inactive) | 20.1 µM (inactive) | 20.4 µM (inactive) | 25.8 µM (inactive) |  | 17.5 µM (inactive)
CC[C@@H](C)[C@H]([C@H](CC(=O)N1CCC[C@@H]1[C@@H](OC)[C@H](C)C(=O)N[C@H](Cc1ccccc1)c1nccs1)OC)N(C)C(=O)[C@H](NC(=O)[C@@H](C(C)C)N(C)C)C(C)C | 0.00407 µM (active) | 0.000502 µM (active) | 0.000387 µM (active) | 0.000288 µM (active) | 0.000208 µM (active) | 0.000159 µM (active) | 0.00108 µM (active) | 0.000461 µM (active) | 
COC[C@@H]1[C@H]2OC(C)(C)O[C@H]2C(=O)N1C(=O)c1ccc(OC)cc1 | > 100 µM (inactive) | > 100 µM (inactive) | > 100 µM (inactive) | > 100 µM (inactive) | > 100 µM (inactive) | > 100 µM (inactive) | > 100 µM (inactive) |  | > 100 µM (inactive)
CCOC(=O)[C@@]12C(C)=CC(=O)O[C@]1(C)C[C@H]2C#N | 15.4 µM (inactive) | > 100 µM (inactive) | > 100 µM (inactive) | > 100 µM (inactive) | > 100 µM (inactive) | > 100 µM (inactive) | > 100 µM (inactive) |  | 
COc1cc(Br)c(CC2NCCc3cc(OC)c(OC)cc32)cc1OC (stereo unspecified) |  | 36.7 µM (inactive) | > 100 µM (inactive) |  | 95.7 µM (inactive) |  | > 100 µM (inactive) |  | 11.7 µM (inactive)
COC(=O)/C(C)=C/[N+](=O)[O-] | 18 µM (inactive) | 14 µM (inactive) | 1.93 µM (inactive) | 18.2 µM (inactive) | 17.4 µM (inactive) | 17.8 µM (inactive) | 21.1 µM (inactive) |  | 14.3 µM (inactive)
COc1ccc(C2COc3c(ccc(OC)c3OC)C2=O)cc1OC (stereo unspecified) | > 100 µM (inactive) | > 100 µM (inactive) | > 100 µM (inactive) | 68.7 µM (inactive) | > 100 µM (inactive) |  | > 100 µM (inactive) |  | 94.8 µM (inactive)
O=c1c2ccccc2nc(-c2cccc(Cl)c2)n1NC1OC(CO)C(O)C(O)C1O (stereo unspecified) | 50.8 µM (inactive) | > 100 µM (inactive) |  | > 100 µM (inactive) | > 100 µM (inactive) | > 100 µM (inactive) | > 100 µM (inactive) | > 100 µM (inactive) | > 100 µM (inactive)
O=c1[nH]c(=O)n(C2CC(O)C(CO)O2)cc1C#Cc1ccc(C(F)(F)F)cc1 (stereo unspecified) | > 100 µM (inactive) | > 100 µM (inactive) | > 100 µM (inactive) | > 100 µM (inactive) |  | > 100 µM (inactive) |  | > 100 µM (inactive) | > 100 µM (inactive)
COc1ccccc1NS(=O)(=O)c1cc(C(C)(C)C)ccc1OCCOc1ccc(C(C)(C)C)cc1S(=O)(=O)Nc1ccccc1OC | > 100 µM (inactive) |  | > 100 µM (inactive) | > 100 µM (inactive) | > 100 µM (inactive) | > 100 µM (inactive) | > 100 µM (inactive) |  | 
O=C1C=C(Nc2ccc(Cl)cc2C(=O)c2ccccc2)c2ccccc2C1=O | > 100 µM (inactive) | > 100 µM (inactive) | > 100 µM (inactive) | > 100 µM (inactive) |  | > 100 µM (inactive) | > 100 µM (inactive) | > 100 µM (inactive) | > 100 µM (inactive)
CN(C)CCN(C)CC1COC(C)(C)O1 (stereo unspecified) | > 100 µM (inactive) | > 100 µM (inactive) | > 100 µM (inactive) |  | > 100 µM (inactive) | > 100 µM (inactive) | > 100 µM (inactive) |  | > 100 µM (inactive)
CC1CN1C(=O)NCCCCCCNC(=O)N1CC1C (stereo unspecified) | > 100 µM (inactive) | > 100 µM (inactive) | > 100 µM (inactive) | > 36.2 µM (inactive) | > 100 µM (inactive) | 25.6 µM (inactive) |  |  | > 100 µM (inactive)
C[C@]12CCC(=O)C=C1CC[C@@H]1C2CC[C@]2(C)Nc3[nH]ncc3CC12 (stereo partly specified) |  | > 100 µM (inactive) | > 100 µM (inactive) | > 100 µM (inactive) | > 100 µM (inactive) | > 100 µM (inactive) | > 100 µM (inactive) |  | > 100 µM (inactive)
CN(C)CCNc1ccc(CO)c2sc3ccc(O)cc3c(=O)c12 | 12.9 µM (inactive) | 4.88 µM (inactive) | 3.52 µM (inactive) | 0.681 µM (active) | 3.08 µM (inactive) | 0.615 µM (active) | 14.4 µM (inactive) |  | 4.92 µM (inactive)
